US20240092758A1, “IMIDAZOLO INDAZOLE COMPOUNDS AS JAK INHIBITORS” (Theravance Biopharma R&D IP, LLC, priority 2021, published 2024)

Legend:
TYK2 = TYK2 (Homo sapiens (Human), UniProt P29597); test: Biochemical JAK kinase assay (LanthaScreen), Tyk2; details: read-out: Tyk2 pKi (converted)
Description: A panel of four LanthaScreen JAK biochemical assays (JAK1, 2, 3 and Tyk2) were carried in a common kinase reaction buffer (50 mM HEPES, pH 7.5, 0.01% Brij-35, 10 mM MgCl2, and 1 mM EGTA). Recombinant GST-tagged JAK enzymes and a GFP-tagged STAT1 peptide substrate were obtained from Life Technologies.
Serially diluted compounds were pre-incubated with each of the four JAK enzymes and the substrate in white 384-well microplates (Corning) at ambient temperature for 1 h. ATP was subsequently added to initiate the kinase reactions in 10 μL total volume, with 1% DMSO. The final enzyme concentrations for JAK1, 2, 3 and Tyk2 are 4.2 nM, 0.1 nM, 1 nM, and 0.25 nM respectively; the corresponding Km ATP concentrations used are 25 μM, 3 μM, 1.6 μM, and 10 μM; while the substrate concentration is 200 nM for all four assays. Kinase reactions were allowed to proceed for 1 hour at ambient temperature before a 10 μL preparation of EDTA (10 mM final concentration) and Tb-anti-pSTAT1 (pTyr701) antibody (Life Technologies, 2 nM final concentration) in TR-FRET dilution buffer (Life Technologies) was added. The plates were allowed to incubate at ambient temperature for 1 h before being read on the EnVision reader (Perkin Elmer). Emission ratio signals (520 nm/495 nm) were recorded and utilized to calculate the percent inhibition values based on DMSO and background controls.
For dose-response analysis, percent inhibition data were plotted vs. compound concentrations, and IC50 values were determined from a 4-parameter robust fit model with the Prism software (GraphPad Software). Results were expressed as pIC50 (negative logarithm of IC50) and subsequently converted to pKi (negative logarithm of dissociation constant, Ki) using the Cheng-Prusoff equation.
Test compounds having a lower Ki value or higher pKi value in the four JAK assays show greater inhibition of JAK activity.

[1] = tested on: IL-13 induced STAT6 phosphorylation in BEAS-2B human lung epithelial cells; test: Cellular JAKI potency assay (BEAS-2B); type: cell-based; details: BEAS-2B cells; for IC50: Homo sapiens, BEAS-2B, read-out: BEAS2B pIC50 (converted)
Outline: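 BEAS-2B cells were preincubated with compound (0.1% DMSO) in HBSS/HEPES/BSA for 1 h at 37 °C, then stimulated with IL-13 (80 ng/mL before addition) for 30 min. After lysis, pSTAT6 (Tyr641) was quantified by AlphaLISA SureFire; IC50 from a 4-parameter fit of percent inhibition, reported as pIC50.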

JAK1 = JAK1 (Homo sapiens (Human), UniProt P23458); test: Biochemical JAK kinase assay (LanthaScreen), JAK1; details: for Ki: read-out: JAK1 pKi (converted)
Outline: (§1)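 LanthaScreen format: phospho-STAT1 (pTyr701) detected with 2 nM Tb antibody after 10 mM EDTA quench. Kinase step used Km-level ATP and 200 nM STAT1 peptide, 1 h at ambient after 1 h pre-incubation. Inhibition fitted to IC50, reported as pKi.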

JAK2 = JAK2 (Homo sapiens (Human), UniProt O60674); test: Biochemical JAK kinase assay (LanthaScreen), JAK2; details: for Ki: read-out: JAK2 pKi (converted)
Outline: as §1

Chain of TYK2 (P29597 whole entry): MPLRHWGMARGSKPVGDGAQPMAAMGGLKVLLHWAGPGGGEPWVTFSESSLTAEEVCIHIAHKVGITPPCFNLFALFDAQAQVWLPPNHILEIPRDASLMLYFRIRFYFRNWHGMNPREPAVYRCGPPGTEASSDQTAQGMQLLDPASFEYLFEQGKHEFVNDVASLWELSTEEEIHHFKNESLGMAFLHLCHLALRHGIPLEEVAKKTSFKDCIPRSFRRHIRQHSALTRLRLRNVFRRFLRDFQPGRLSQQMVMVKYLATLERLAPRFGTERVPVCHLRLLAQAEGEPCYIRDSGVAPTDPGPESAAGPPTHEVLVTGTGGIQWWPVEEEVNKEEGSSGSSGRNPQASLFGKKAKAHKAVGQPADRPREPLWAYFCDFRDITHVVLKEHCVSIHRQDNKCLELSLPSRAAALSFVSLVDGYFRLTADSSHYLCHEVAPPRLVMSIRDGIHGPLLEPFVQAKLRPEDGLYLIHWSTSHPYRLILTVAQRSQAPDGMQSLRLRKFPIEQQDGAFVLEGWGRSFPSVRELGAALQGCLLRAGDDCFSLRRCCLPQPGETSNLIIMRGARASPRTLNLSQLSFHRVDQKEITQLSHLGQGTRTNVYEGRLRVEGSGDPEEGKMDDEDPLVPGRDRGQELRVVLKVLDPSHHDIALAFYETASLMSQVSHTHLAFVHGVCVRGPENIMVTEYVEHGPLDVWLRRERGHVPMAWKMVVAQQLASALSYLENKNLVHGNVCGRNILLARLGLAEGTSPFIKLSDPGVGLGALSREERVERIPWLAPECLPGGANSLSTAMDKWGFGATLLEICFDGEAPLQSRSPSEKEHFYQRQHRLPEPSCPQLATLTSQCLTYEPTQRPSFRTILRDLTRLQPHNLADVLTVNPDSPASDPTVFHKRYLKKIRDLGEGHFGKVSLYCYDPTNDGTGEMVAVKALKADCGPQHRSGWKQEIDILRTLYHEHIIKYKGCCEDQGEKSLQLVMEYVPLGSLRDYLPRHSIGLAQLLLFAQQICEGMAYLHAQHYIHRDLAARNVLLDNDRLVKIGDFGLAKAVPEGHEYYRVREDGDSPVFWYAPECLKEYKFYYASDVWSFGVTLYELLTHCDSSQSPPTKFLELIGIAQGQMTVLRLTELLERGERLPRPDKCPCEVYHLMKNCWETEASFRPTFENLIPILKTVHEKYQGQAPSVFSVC
Chain of JAK2 (O60674 whole entry): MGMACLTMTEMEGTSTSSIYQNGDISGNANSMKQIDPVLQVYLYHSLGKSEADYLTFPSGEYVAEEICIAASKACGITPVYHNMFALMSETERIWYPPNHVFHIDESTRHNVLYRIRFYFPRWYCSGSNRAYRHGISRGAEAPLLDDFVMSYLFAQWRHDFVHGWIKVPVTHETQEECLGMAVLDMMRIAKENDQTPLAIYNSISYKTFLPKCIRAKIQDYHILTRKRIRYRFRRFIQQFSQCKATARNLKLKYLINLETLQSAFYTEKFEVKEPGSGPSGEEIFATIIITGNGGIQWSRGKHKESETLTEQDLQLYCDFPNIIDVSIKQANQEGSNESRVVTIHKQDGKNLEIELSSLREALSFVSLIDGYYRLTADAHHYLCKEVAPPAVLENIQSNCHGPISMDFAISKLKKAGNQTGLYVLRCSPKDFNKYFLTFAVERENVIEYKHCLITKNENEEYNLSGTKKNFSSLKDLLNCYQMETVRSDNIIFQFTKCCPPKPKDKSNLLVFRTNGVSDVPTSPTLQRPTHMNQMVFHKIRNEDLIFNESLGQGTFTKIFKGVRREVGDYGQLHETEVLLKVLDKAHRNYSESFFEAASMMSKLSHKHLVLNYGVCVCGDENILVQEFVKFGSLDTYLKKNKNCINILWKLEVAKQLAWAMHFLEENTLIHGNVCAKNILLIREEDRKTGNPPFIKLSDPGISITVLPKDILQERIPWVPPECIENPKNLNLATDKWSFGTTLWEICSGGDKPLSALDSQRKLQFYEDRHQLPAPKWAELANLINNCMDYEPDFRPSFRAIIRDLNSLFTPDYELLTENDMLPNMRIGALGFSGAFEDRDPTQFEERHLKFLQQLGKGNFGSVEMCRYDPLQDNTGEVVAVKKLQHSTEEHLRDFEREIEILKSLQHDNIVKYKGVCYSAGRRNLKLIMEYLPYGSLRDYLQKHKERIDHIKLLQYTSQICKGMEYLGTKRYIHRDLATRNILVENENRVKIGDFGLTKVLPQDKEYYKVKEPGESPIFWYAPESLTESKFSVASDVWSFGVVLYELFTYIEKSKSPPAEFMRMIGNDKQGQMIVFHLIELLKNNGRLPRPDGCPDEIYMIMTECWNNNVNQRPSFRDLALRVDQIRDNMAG
Chain of JAK1 (P23458 whole entry): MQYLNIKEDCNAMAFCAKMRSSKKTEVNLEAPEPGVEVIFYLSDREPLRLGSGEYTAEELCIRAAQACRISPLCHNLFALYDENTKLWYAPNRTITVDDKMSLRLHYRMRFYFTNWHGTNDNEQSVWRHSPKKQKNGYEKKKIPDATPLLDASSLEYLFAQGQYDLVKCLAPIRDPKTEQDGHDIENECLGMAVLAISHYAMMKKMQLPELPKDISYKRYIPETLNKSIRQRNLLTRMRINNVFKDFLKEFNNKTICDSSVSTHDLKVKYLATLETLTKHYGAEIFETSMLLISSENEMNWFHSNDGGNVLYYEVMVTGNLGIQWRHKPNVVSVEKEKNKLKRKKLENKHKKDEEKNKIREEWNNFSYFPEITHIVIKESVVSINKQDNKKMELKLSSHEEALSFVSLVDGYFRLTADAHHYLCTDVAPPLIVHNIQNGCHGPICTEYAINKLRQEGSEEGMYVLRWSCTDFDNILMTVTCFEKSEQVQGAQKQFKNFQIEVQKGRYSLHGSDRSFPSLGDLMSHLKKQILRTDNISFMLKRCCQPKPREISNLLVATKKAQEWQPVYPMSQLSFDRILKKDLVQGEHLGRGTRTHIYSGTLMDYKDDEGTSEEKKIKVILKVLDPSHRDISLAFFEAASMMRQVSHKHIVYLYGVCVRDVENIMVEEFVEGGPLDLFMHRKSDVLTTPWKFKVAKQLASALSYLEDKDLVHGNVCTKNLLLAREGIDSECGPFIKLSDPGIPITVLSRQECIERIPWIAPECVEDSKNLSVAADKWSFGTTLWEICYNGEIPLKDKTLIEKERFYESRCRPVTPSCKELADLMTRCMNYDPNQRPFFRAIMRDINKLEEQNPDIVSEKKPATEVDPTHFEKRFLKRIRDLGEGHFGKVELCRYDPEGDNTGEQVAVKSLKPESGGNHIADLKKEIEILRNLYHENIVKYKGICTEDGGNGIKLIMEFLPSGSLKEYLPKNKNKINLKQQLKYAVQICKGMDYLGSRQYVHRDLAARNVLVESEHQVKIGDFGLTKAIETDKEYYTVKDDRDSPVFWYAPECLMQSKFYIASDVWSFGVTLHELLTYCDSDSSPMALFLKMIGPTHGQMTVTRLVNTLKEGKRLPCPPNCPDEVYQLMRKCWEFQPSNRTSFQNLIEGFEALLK

SMILES | Ki (TYK2) | IC50 [1] | Ki (JAK1) | JAK1 pKi (JAK1) | JAK2 pKi (JAK2) | Ki (JAK2) | BEAS2B pIC50 [1]
CCc1cc(O)ccc1-c1ccc2c(-c3nc(C4=CCN(C(=O)[C@@H]5CCCN5)CC4)c[nH]3)n[nH]c2c1F [Compound 16, (S)-6-(2-ethyl-4-hydroxyphenyl)-7-fluoro-3-(4-(1-prolyl-1,2,3,6-tetrahydropyridin-4-yl)-1H-imidazol-2-yl)-1H-indazole] | 1 to 10 nM | 31.6 to 100 nM | 1 to 10 nM |  |  |  | 
CCc1cc(O)c(F)cc1-c1ccc2c(-c3nc(C4=CCNC4)c[nH]3)n[nH]c2c1F [Example 18, 4-(3-(4-(2,5-dihydro-1H-pyrrol-3-yl)-1H-imidazol-2-yl)-7-fluoro-1H-indazol-6-yl)-5-ethyl-2-fluorophenol] | 1 to 10 nM | 3.16 to 10 nM |  | A (A represents a pKi value ≥10 (Ki≤0.1 nM)) |  |  | 
CCc1cc(O)ccc1-c1ccc2c(-c3nc(C4=CCN(C5CCCCC5)CC4)c[nH]3)n[nH]c2c1F [Example 122] | 1 to 10 nM | 31.6 to 100 nM | 0.1 to 1 nM |  |  |  | 
CCc1cc(O)ccc1-c1ccc2c(-c3nc(C4=CCCN(C5CCCCC5)C4)c[nH]3)n[nH]c2c1F [Example 126] | 1 to 10 nM | 31.6 to 100 nM | 0.1 to 1 nM |  |  |  | 
CCc1cc(O)ccc1-c1ccc2c(-c3nc(C4=CCN(C(=O)[C@@H](N)Cc5ccccc5)CC4)c[nH]3)n[nH]c2c1 [Example 176] | 1 to 10 nM | 31.6 to 100 nM | 0.1 to 1 nM |  |  |  | 
CCc1cc(O)ccc1-c1ccc2c(-c3nc(C4=CCN(C(=O)[C@@H]5CCCN5)CC4)c[nH]3)n[nH]c2c1 [Example 177] | 1 to 10 nM | 31.6 to 100 nM | 0.1 to 1 nM |  |  |  | 
CCc1cc(O)ccc1-c1ccc2c(-c3nc(C4=CCN(C(=O)[C@@H](N)Cc5ccccc5)CC4)c[nH]3)n[nH]c2c1F [Example 179] | 10 to 100 nM | 100 to 316 nM | 1 to 10 nM |  |  |  | 
CCc1cc(O)ccc1-c1ccc2c(-c3nc(C4=CCN(S(=O)(=O)C5CNC5)C4)c[nH]3)n[nH]c2c1F [Example 180] | 10 to 100 nM | 31.6 to 100 nM | 1 to 10 nM |  |  |  | 
CCc1cc(O)ccc1-c1ccc2c(-c3nc(C4=CCN(C(=O)[C@@H]5CCCN5)C4)c[nH]3)n[nH]c2c1F [Example 181] | 1 to 10 nM | 31.6 to 100 nM | 0.1 to 1 nM |  |  |  | 
CCc1cc(O)ccc1-c1ccc2c(-c3nc(C4=CCN(CCNC)CC4)c[nH]3)n[nH]c2c1 [Example 183] | 1 to 10 nM | 31.6 to 100 nM | 0.1 to 1 nM |  |  |  | 
CCc1cc(O)ccc1-c1ccc2c(-c3nc(C4=CCN(C(=O)CNCCOC)C4)c[nH]3)n[nH]c2c1F [Example 362] |  | 31.6 to 100 nM | 0.1 to 1 nM |  | A (A represents a pKi value ≥10 (Ki≤0.1 nM)) |  | 
CCc1cc(O)ccc1-c1ccc2c(-c3nc(C4=CCN(C(=O)CCN(C)C)C4)c[nH]3)n[nH]c2c1F [Example 363] |  | 31.6 to 100 nM | 0.1 to 1 nM |  | A (A represents a pKi value ≥10 (Ki≤0.1 nM)) |  | 
CCc1cc(O)ccc1-c1ccc2c(-c3nc(C4=CCN(C(=O)CN(CCO)CCO)C4)c[nH]3)n[nH]c2c1F [Example 364] |  | 31.6 to 100 nM | 0.1 to 1 nM |  | A (A represents a pKi value ≥10 (Ki≤0.1 nM)) |  | 
CCc1cc(O)ccc1-c1ccc2c(-c3nc(C4=CCN(C(=O)CN5CCN(C)CC5)C4)c[nH]3)n[nH]c2c1F [Example 365] |  | 31.6 to 100 nM | 0.1 to 1 nM |  | A (A represents a pKi value ≥10 (Ki≤0.1 nM)) |  | 
CCc1cc(O)ccc1-c1ccc2c(-c3nc(C4=CCNC(C(C)C)C4)c[nH]3)n[nH]c2c1F (stereo not drawn) [Example 368] |  | 31.6 to 100 nM | 0.1 to 1 nM |  |  | 0.1 to 1 nM | 
Oc1ccc(-c2ccc3c(-c4nc(C5=CCNCC5)c[nH]4)n[nH]c3c2)c(CC(F)(F)F)c1 [Example 369] |  | 31.6 to 100 nM | 0.1 to 1 nM |  |  | 0.1 to 1 nM | 
CCc1cc(O)ccc1-c1ccc2c(-c3nc(C4=CCNC(C(C)(C)C)C4)c[nH]3)n[nH]c2c1F (stereo not drawn) [Example 370] |  | 31.6 to 100 nM | 1 to 10 nM |  |  | 0.1 to 1 nM | 
CCc1cc(O)c(C)cc1-c1ccc2c(-c3nc(C4=CCNCC4)c[nH]3)n[nH]c2c1F [Example 371] |  | 31.6 to 100 nM | 1 to 10 nM |  |  | 1 to 10 nM | 

SMILES | Ki (TYK2) | IC50 [1] | Ki (JAK1) | JAK1 pKi (JAK1) | JAK2 pKi (JAK2) | Ki (JAK2) | BEAS2B pIC50 [1]
CCc1cc(O)ccc1-c1ccc2c(-c3nc(C4=CC(c5ccccc5)NC4)c[nH]3)n[nH]c2c1F (stereo not drawn) [Example 372] |  | 31.6 to 100 nM | 1 to 10 nM |  |  | 1 to 10 nM | 
CCc1cc(O)ccc1-c1ccc2c(-c3nc(C4=C[C@H](CC(=O)N5CCN(C)CC5)NC4)c[nH]3)n[nH]c2c1F [Example 373] |  | 31.6 to 100 nM | 0.1 to 1 nM |  | A (A represents a pKi value ≥10 (Ki≤0.1 nM)) |  | 
CCc1cc(O)ccc1-c1ccc2c(-c3nc(C4=CCN(C(=O)COCCN(C)C)C4)c[nH]3)n[nH]c2c1F [Example 374] |  | 31.6 to 100 nM | 0.1 to 1 nM |  | A (A represents a pKi value ≥10 (Ki≤0.1 nM)) |  | 
CCc1cc(O)ccc1-c1ccc2c(-c3nc(C4=CCN(C(=O)[C@H](COC)NC)C4)c[nH]3)n[nH]c2c1F [Example 375] |  | 31.6 to 100 nM | 0.1 to 1 nM |  | A (A represents a pKi value ≥10 (Ki≤0.1 nM)) |  | 
CCc1cc(O)ccc1-c1ccc2c(-c3nc(C4=CCNC(C)(C)C4)c[nH]3)n[nH]c2c1 [Example 376] |  | 31.6 to 100 nM | 0.1 to 1 nM |  |  | 0.1 to 1 nM | 
CCc1cc(O)ccc1-c1ccc2c(-c3nc(C4=CCNC(C)(C)C4)c[nH]3)n[nH]c2c1F [Example 377] |  | 31.6 to 100 nM | 0.1 to 1 nM |  |  | 0.1 to 1 nM | 
Oc1ccc(-c2ccc3c(-c4nc(C5=CCNC5)c[nH]4)n[nH]c3c2)c(CC(F)(F)F)c1 [Example 378] |  | 31.6 to 100 nM | 0.1 to 1 nM |  |  | 0.1 to 1 nM | 
CCc1cc(O)ccc1-c1ccc2c(-c3nc(C4=C(C(=O)N(C)C)CNCC4)c[nH]3)n[nH]c2c1F [Example 379] |  | 31.6 to 100 nM | 0.1 to 1 nM |  | A (A represents a pKi value ≥10 (Ki≤0.1 nM)) |  | 
CCc1cc(O)ccc1-c1ccc2c(-c3nc(C4=CCN(C(=O)CCNC)C4)c[nH]3)n[nH]c2c1F [Example 380] |  | 31.6 to 100 nM | 0.1 to 1 nM |  | A (A represents a pKi value ≥10 (Ki≤0.1 nM)) |  | 
CCc1cc(O)ccc1-c1ccc2c(-c3nc(C4=CCN(C(=O)CCNCCOC)C4)c[nH]3)n[nH]c2c1F [Example 381] |  | 31.6 to 100 nM | 0.1 to 1 nM |  | A (A represents a pKi value ≥10 (Ki≤0.1 nM)) |  | 
CCc1cc(O)ccc1-c1ccc2c(-c3nc(C4=CCN(C(=O)[C@H](CO)NC)C4)c[nH]3)n[nH]c2c1F [Example 385] |  | 31.6 to 100 nM | 0.1 to 1 nM |  | A (A represents a pKi value ≥10 (Ki≤0.1 nM)) |  | 
CCc1cc(O)ccc1-c1ccc2c(-c3nc(C4=CCN[C@H](CO)C4)c[nH]3)n[nH]c2c1F [Example 386] |  |  | 0.1 to 1 nM |  |  | 0.1 to 1 nM | C (C represents a pIC50 value between 7 (included) and 7.5)
Oc1ccc(-c2ccc3c(-c4nc(C5=CCNCC5)c[nH]4)n[nH]c3c2F)c(CC(F)(F)F)c1 [Example 387] |  | 31.6 to 100 nM | 1 to 10 nM |  |  | 0.1 to 1 nM | 
CCc1cc(O)ccc1-c1ccc2c(-c3nc(C4=CC(C(C)C)NC4)c[nH]3)n[nH]c2c1F (stereo not drawn) [Example 388] |  | 31.6 to 100 nM | 1 to 10 nM |  |  | 1 to 10 nM | 
CCc1cc(O)ccc1-c1ccc2c(-c3nc(C4=CCN(C(=O)COCCNCCOC)C4)c[nH]3)n[nH]c2c1F [Example 389] |  | 100 to 316 nM | 0.1 to 1 nM |  | A (A represents a pKi value ≥10 (Ki≤0.1 nM)) |  | 
CCc1cc(O)ccc1-c1ccc2c(-c3nc(C4=CCN([C@H]5CC[C@](O)(C(F)(F)F)CC5)C4)c[nH]3)n[nH]c2c1F [Example 391] |  | 100 to 316 nM | 0.1 to 1 nM |  |  | 0.1 to 1 nM | 
CCc1cc(O)ccc1-c1ccc2c(-c3nc(C4=CCN[C@H](CO)C4)c[nH]3)n[nH]c2c1F [Example 392] |  |  |  | B (B represents a pKi value between 9 (included) and 10 (Ki between 1 nM and 0.1 nM)) | B (B represents a pKi value between 9 (included) and 10 (Ki between 1 nM and 0.1 nM)) |  | D (D represents a pIC50 value between 6.5 (included) and 7)
CCc1cc(O)ccc1-c1ccc2c(-c3nc(C4=CCN(CCS(=O)(=O)NC)C4)c[nH]3)n[nH]c2c1F [Example 393] |  | 100 to 316 nM | 0.1 to 1 nM |  |  | 0.1 to 1 nM | 
